Measurements taken from patent US10912752B2, “Methods and compositions for reducing ocular discomfort” (Brien Holden Vision Institute Limited, priority 2012, dated 2021).

Assays:
[1] = Effect on final osmolarity of culture medium (vapour pressure osmometer); type: physicochemical; conditions: up to 10 mM; results not shown
Method: (§1) 500 mOsm and exposure time (16 h) to be the most informative under which to observe hyperosmolality induced cellular responses of HCLE (results not shown). Thus, in the present study, a hyperosmotic medium of 500 mOsm and exposure time of 16 h were used throughout. Hyperosmolar media were prepared by the addition of NaCl to the medium. Medium osmolarity was measured using a Vapro 5520 vapour pressure osmometer (Wescor, Logan, Utah). Subconfluent cells were exposed to hyperosmolar media in the presence or absence of betaine (5 or 10 mM). Mitochondrial and proliferation activities for cell viability; TNF-α production; caspase activity and Annexin V/PI staining for apoptosis; and cellular shrinkage were monitored as detailed below.

HCLE cells [2] = experiment: CyQUANT cell number after hyperosmolar medium; type: cell-based, human; conditions: 5 or 10 mM, 500 mOsm, 16 h, vs hyperosmotic control
Method: as §1
(§2) MTT viability assay kit was used to measure cell viability (above). CyQUANT cell proliferation assay kit (Invitrogen-Molecular probe, Eugene, Oreg.) was used to determine the cell number. Culture supernatants were removed and centrifuged at 1500 rpm for 10 min to harvest any detached cells from the supernatant. Remaining cells were rinsed once with PBS. […] Fluorescence, indicating cell viability, was measured using SpectraFluor Plus microplate reader (Tecan, Männedorf, Switzerland); 485 nm for excitation and 535 nm for emission maxima.

HCLE cells [3] = experiment: MTT mitochondrial activity after hyperosmolar medium; type: cell-based, human; conditions: 5 or 10 mM, 500 mOsm, 16 h, vs hyperosmotic control
Method: as §1, §2

For `C[N+](C)(C)CC(=O)[O-]` [betaine, trimethylglycine], the “effect on the final osmolarity of the medium” value [1] was “minimal effect”, the “increase in cell numbers” value (HCLE cells [2]) was 12% and the “increase in mitochondrial activity” value (HCLE cells [3]) was 17%.
